Values after ≈ are worked out from the molar mass of the structure shown.
Columns and labels:
[1] = tested on: Pseudomonas aeruginosa biofilm; experiment: Crystal violet biofilm formation and mature biofilm assay; type: cell-based; details: added at t=0 (de novo forming) or t=24 hours (established), pH 7.0, FIG. 5
Protocol: (§1) After addition of treatments, all plates were then incubated for 24 hours at 37° C.
(§2) Following incubation at room temperature for 15 minutes the microtiter plates were washed 3-4 times with water by submerging in water, with blotting to rid the plate of all excess cells and dye. Plates were left to dry overnight. The CV stain was solubilised with 125 ul of 30% acetic acid and absorbance to indicate biofilm biomass quantified at 550 nm following an incubation of 15 minutes, normalised to vehicle only.

[2] = tested on: Staphylococcus aureus biofilm; experiment: as above; type: cell-based; details: added at t=0 (de novo forming) or t=24 hours (established), pH 7.0, FIG. 5
Protocol: as §1, §2

S. epidermidis biofilm = experiment: as above; type: cell-based, Staphylococcus epidermidis; details: added at t=0 (de novo forming) or t=24 hours (established), pH 7.0, FIG. 5
Protocol: as §1, §2

[3] = cited from earlier work
[4] = Octanol-Water; cited from earlier work
[5] = rat, 4 h; cited from earlier work
[6] = rabbit; cited from earlier work
[7] = tested on: Pseudomonas aeruginosa (WACC91 and PA-001) biofilm; experiment: Crystal violet staining of biofilm-protected P. aeruginosa microcolonies; type: cell-based
Protocol: Laboratory strains of Pseudomonas aeruginosa (WACC91 and PA-001) were thawed (stored as 50% glycerol stocks at −70° C.+2° C.) and streaked out on blood agar plates. […] In this case cultures were propagated to stationary phase to induce stress responses needed to induce biofilm formation on seeding for treatment. […] Biofilm formation was complete approximately 24-48 hours following seeding, this was confirmed by a minimum of 1.8 absorbance units at 600 nm. Prebiotic solution collected from C1 was applied to B0 cultures that had achieved biofilm formation. A 10 dose dilution series of the prebiotic test solution in PMM was prepared (Table 2) to determine the optimal dose range for biofilm disruption of B0 cultures, with 50 μl total volume added to each B0 culture. […] The CV stain was solubilised with 125 ul of 30% acetic acid and absorbance to indicate biofilm density (also referred to as biofilm biomass) was quantified at 550 nm following an incubation of 15 minutes at room temperature. […] Biofilm formation was complete approximately 24-48 hours following seeding as confirmed by a minimum of 1.8 absorbance units at 600 nm. […] The CV stain was solubilised with 125 ul of 30% acetic acid and absorbance to indicate biofilm biomass quantified at 550 nm following an incubation of 15 minutes.

[8] = tested on: P. aeruginosa clinical isolates from patients with cystic fibrosis; experiment: Resazurin staining of biofilm microcolonies from clinical isolates; details: for Altered metabolism with treatment (% of isolates) / Metabolism change (% from baseline): 0.5-1.25 ug/ml, 24 hours
Protocol: Cultures of interest were thawed and streaked out on blood agar plates and allowed to grow at 37° C., 5% CO2 for 12-24 hours until suitable growth was achieved to enable further culturing. An isolated colony was looped into 5 ml of LB broth and incubated overnight at 37° C., 5% CO2.
Stock cultures were diluted 1:1000 in 1% of appropriate media (LB for mucoid P. aeruginosa strains; M63 medium was used for P. aeruginosa rough strains 001-11R; PMM for all other strains) to achieve approximately 10^8 cfu/ml (confirmed by measuring 0.02 absorbance units, approximately 1.8 ul in 2 ml of media). Diluted working cultures were mixed well and seeded at 200 ul/well across a 96 well microtitre plate, with biofilm formation complete approximately 24-48 hours following seeding.
Treatments were completed in duplicate for all bacterial strains across the dose range used.
Viable cells reduce the blue resazurin dye to the pink-fluorescent resorufin form. Following incubation fluorescence was quantified by excitation wavelength of 540 nm and an emission wavelength of 590 nm using Enspire microplate reader.

S. aureus (ATCC 33592) = experiment: Antimicrobial activity on planktonic bacteria, flow cytometry and broth microdilution; details: for MIC: Staphylococcus aureus, ATCC33592, read-out: minimum inhibitory concentration (MIC); for concentration at which first significant phenotypic change (decrease in SYTO 9 fluorescence) was observed: flow cytometry, 3 hours
Protocol: (§3) This was undertaken in parallel with a conventional broth microdilution (BMD) assay.
(§4) Two-fold serial dilutions of D- or L-lactate were performed in a 96-well plate, ranging from 0.008 grams per litre to 8 g/L with a volume of 50 μL per well.
(§5) The bacterial suspensions were prepared from cultures grown overnight in trypticase soya broth (TSB). Each culture was diluted 1:1000 in Hanks buffered saline solution (HBSS), stained with 1 μL of SYTO® 9, incubated for a minimum of 8 minutes with shaking, and enumerated by flow cytometry. The TSB cultures were then adjusted to 2×10^5 cells per mL in CAMHB.
(§6) To the replicate dilution series of lactic acids, 50 μL of bacterial suspension was added for a final volume of 100 μL per well, each row containing a concentration gradient ranging from 0.004 to 4 g/L. There were 3 organisms per plate (E. coli, P. aeruginosa, S. aureus), set up in duplicate. […] These wells were representative of the suspension density at the time of inoculation.
(§7) For conventional BMD, the incubation time was 24 hours. For flow cytometry, the incubation time was 3 hours. For flow cytometry, following incubation 100 μL of HBSS, containing SYTO® 9 at a concentration of 10 μM was added to each well of the plate for a final dye concentration of 5 μM. The plates were then incubated at ambient temperature in the dark for 10 minutes, loaded onto the Attune™ Autosampler, and the data acquired. The plates were run simultaneously on two different Attune™ cytometers.

[9] = tested on: P. aeruginosa (ATCC 27853); experiment: as above; details: for MIC: Pseudomonas aeruginosa, ATCC27853, read-out: minimum inhibitory concentration (MIC); for concentration at which first significant phenotypic change (decrease in SYTO 9 fluorescence) was observed: flow cytometry, 3 hours
Protocol: as §3, §4, §5, §6, §7

E. coli (ATCC 25922) = experiment: as above; details: for MIC: Escherichia coli, ATCC25922, read-out: minimum inhibitory concentration (MIC); for concentration at which first significant phenotypic change (decrease in SYTO 9 fluorescence) was observed: flow cytometry, 3 hours
Protocol: as §3, §4, §5, §6, §7

[10] = tested on: P. aeruginosa clinical isolates from patients with cystic fibrosis; experiment: Crystal violet staining of biofilm microcolonies from clinical isolates; type: cell-based; details: for Biofilm breakdown (% from baseline) / Isolates responsive to breakdown (% of isolates): 0.5-1.25 ug/ml, 24 hours
[11] = tested on: Pseudomonas aeruginosa (WACC91) biofilm-protected microcolonies; experiment: Resazurin staining, bacterial metabolic activity of biofilm-protected cultures; type: cell-based
Protocol: Laboratory strains of Pseudomonas aeruginosa (WACC91 and PA-001) were thawed (stored as 50% glycerol stocks at −70° C.+2° C.) and streaked out on blood agar plates. […] In this case cultures were propagated to stationary phase to induce stress responses needed to induce biofilm formation on seeding for treatment.
Biofilm formation was complete approximately 24-48 hours following seeding, this was confirmed by a minimum of 1.8 absorbance units at 600 nm.
Prebiotic solution collected from C1 was applied to B0 cultures that had achieved biofilm formation. A 10 dose dilution series of the prebiotic test solution in PMM was prepared (Table 2) to determine the optimal dose range for biofilm disruption of B0 cultures, with 50 μl total volume added to each B0 culture.
A 12-fold serial dilution of tobramycin (99% pure tobramycin sulfate powder, Research Products International) standards were prepared in PMM (8 ng/ml-16 ug/ml), to act as a reference point for assessing biofilm disruption activity observed by the prebiotic test treatment (Table 2). Tobramycin is an antibiotic commonly used to treat chronic respiratory bacterial infections, particularly Pseudomonas aeruginosa. A total of 50 ul of tobramycin standards were added to B0 cultures that had achieved biofilm formation. […]

For `CC(O)C(=O)O` (racemic) [racemic mix (D/L), D/L lactic acid], the “biofilm mass (crystal violet) compared to baseline” value (“biofilm mass … compared to baseline” for short) [1] was “variable results”, the “biofilm mass … compared to baseline” value [2] was “variable results” and the “biofilm mass … compared to baseline” value (S. epidermidis biofilm) was “variable results”.

In the case of `O=C(O)C(O)c1ccccc1` (stereo not drawn) [2-hydroxy-2-phenylacetic acid], the Water solubility [3] is listed as 1140 mM and the “Log P” value [4] is listed as 0.67.

In the case of `CCC(O)C(=O)O` (stereo not drawn) [2-hydroxybutanoic acid], the Water solubility [3] is listed as 1930 mM.

For `CCCCC(O)C(=O)O` (stereo not drawn) [2-hydroxyhexanoic acid], the Water solubility [3] is given as 270 mM.

In the case of `CCCC(O)C(=O)O` (stereo not drawn) [2-hydroxypentanoic acid], the Water solubility [3] is given as 1640 mM.

In the case of `CC(O)C(=O)O` (stereo not drawn) [2-hydroxypropanoic acid], the “LC50 Inhalation” value [5] is given as >7.94 mg/L (rat) 4 h and the “LD50 Dermal” value [6] is given as >2000 mg/kg (rabbit).

With `C[C@@H](O)C(=O)O` [D-lactic acid, (2R)-2-hydroxypropanoic acid] the “active dose range for biofilm disruption” value ([7]; pure grade standards run against prebiotic test solution dilutions, methods of Example 1) was 0.25 to 1.25 mg/mL, the “Altered metabolism with treatment (% of isolates)” value ([8]; Mucoid isolates) was 75 % of isolates and the “Metabolism change (% from baseline)” value ([8]; Mucoid isolates) was 37 % from baseline. For the same molecule, the “Altered metabolism with treatment (% of isolates)” value ([8]; Non-mucoid isolates) was 69.2 % of isolates, the “Metabolism change (% from baseline)” value ([8]; Non-mucoid isolates) was 46.1 % from baseline and the “share of all strains tested showing a change in metabolic activity” value ([8]; all strains tested) was “More than 65%”. The MIC (S. aureus (ATCC 33592)) was 4000 µg/mL (≈ 44.4 mM), the “concentration at which first significant phenotypic change (decrease in SYTO 9 fluorescence) was observed” value (S. aureus (ATCC 33592)) was 1 g/L and the MIC [9] was 4000 µg/mL (≈ 44.4 mM). For the same molecule, the “concentration at which first significant phenotypic change (decrease in SYTO 9 fluorescence) was observed” value [9] was 1 g/L, the MIC (E. coli (ATCC 25922)) was 4000 µg/mL (≈ 44.4 mM) and the “concentration at which first significant phenotypic change (decrease in SYTO 9 fluorescence) was observed” value (E. coli (ATCC 25922)) was 1 g/L. The “Biofilm breakdown (% from baseline)” value ([10]; Mucoid isolates) was 17.2 % from baseline, the “Isolates responsive to breakdown (% of isolates)” value ([10]; Mucoid isolates) was 60 % of isolates and the “Biofilm breakdown (% from baseline)” value ([10]; Non-mucoid isolates) was 23 % from baseline. For the same molecule, the “Isolates responsive to breakdown (% of isolates)” value ([10]; Non-mucoid isolates) was 53.8 % of isolates and the “share of all strains showing evidence of biofilm disruption” value ([10]; all strains tested) was “Greater than 50%”.

In the case of `C[C@H](O)C(=O)O` [L-lactic acid, reference compound], the “biofilm mass … compared to baseline” value [1] is reported as “not”, the “biofilm mass … compared to baseline” value [2] is reported as “not” and the “biofilm mass … compared to baseline” value (S. epidermidis biofilm) is reported as “not”. The MIC (S. aureus (ATCC 33592)) was 4000 µg/mL (≈ 44.4 mM), the “concentration at which first significant phenotypic change (decrease in SYTO 9 fluorescence) was observed” value (S. aureus (ATCC 33592)) was 1 g/L and the MIC [9] was 4000 µg/mL (≈ 44.4 mM). For the same molecule, the “concentration at which first significant phenotypic change (decrease in SYTO 9 fluorescence) was observed” value [9] was 1 g/L, the MIC (E. coli (ATCC 25922)) was 4000 µg/mL (≈ 44.4 mM) and the “concentration at which first significant phenotypic change (decrease in SYTO 9 fluorescence) was observed” value (E. coli (ATCC 25922)) was 1 g/L.

For `NC[C@H]1O[C@H](O[C@H]2[C@H](O)[C@@H](O[C@H]3O[C@H](CO)[C@@H](O)[C@H](N)[C@H]3O)[C@H](N)C[C@@H]2N)[C@H](N)C[C@@H]1O` [tobramycin], the reduced biofilm density ([7]; tobramycin 16 ug/ml, bioactive dose) was 80-90%, the “concentrations at which reduced metabolic activity was observed” value ([11]; WACC91, 24 hrs treatment, supernatants) was 1 to 16 µg/mL and the “inhibition of metabolic activity relative to prebiotic test solution (90%)” value ([11]; bioactive dose 16 ug/ml) was “comparable”.
